Several values for one entry are separate records, joined by “and”; a condition that tells them apart may be missing. Equal values may be shown once.
What was measured:
Type in all cases: cell-based
[1] = system: Salmonella enteritidis IIP 604; assay: invA-PCR (378 bp) of EMA-treated Salmonella, band intensity of final amplified product; conditions: for bands of invA gene amplified products (electrophoresis, FIG. 4): multi-step treatment (EMA 10 μg/ml-incubation-EMA 10 μg/ml)
[2] = system: Enterobacter sakazakii ATCC 6538P; assay: ompA real-time PCR (469 bp) of EMA-treated Enterobacter sakazakii, Ct value
[3] = system: Listeria monocytogenes JCM 2873; assay: hlyA-PCR of EMA-treated Listeria (live and injured cells), band intensity of final amplified product on agarose gel; conditions: for bands of hlyA gene amplified products (electrophoresis, FIG. 1): multi-step treatment (EMA 100 μg/ml-incubation-EMA 25 or 10 μg/ml); for bands estimated as hlyA gene amplified products (electrophoresis, FIG. 1): single-step treatment, live cells and injured cells
[4] = system: Enterobacter sakazakii ATCC 6538P; assay: MMS-PCR of EMA-treated Enterobacter sakazakii, band intensity of final amplified product; conditions: for bands of MMS gene amplified products (electrophoresis, FIG. 3): multi-step treatment (EMA 10 μg/ml-incubation-EMA 10 μg/ml)
Experimental: A Gram-negative bacterium, Enterobacter sakazakii (Enterobacter sakazakii ATCC […]; hereinafter, abbreviated as “sakazakii” in some cases), was cultured in brain-heart infusion (BHI) broth at 37° C., and 5 ml of the culture medium in the logarithmic growth phase was centrifuged at 8,000×g for 15 minutes at 4° C., followed by removal of the supernatant. 5 ml of physiological saline was added to the bacterial cells, and the whole was vigorously stirred and diluted 10-fold. Thus, a live cell suspension was prepared. […] The live cell suspension (1 ml) was placed in a 1.5-ml microtube, and the microtube was immersed in boiling water for 2 minutes and immediately cooled with ice water, to thereby prepare a injured cell suspension. The cells in the suspension probably include small numbers of live cells and dead cells but include mainly injured cells. Therefore, the cells are simply referred to as “injured cells”. Note that the method of the present invention is originally intended to detect live cells, and microorganism cells distinguished from live cells may be injured cells or dead cells. Ethidium monoazide (EMA) was added to the live cell suspension and injured cell suspension of sakazakii prepared above at a final concentration of 0, 10, 25, or 100 μg/ml, and the suspensions were allowed to stand under shading at 4° C. for 10 minutes. The suspensions were placed on ice and irradiated for 5 minutes with a 500-W visible light (FLOOD PRF: 100 […] ELECTRIC CO., LTD., wavelength: 500 to 700 nm) at a distance of 20 cm from the suspensions. Then, the suspensions were centrifuged at 15,000×g for 10 minutes at 4° C., and the supernatants were removed. An equal volume of physiological saline was added thereto, and the suspensions were stirred and centrifuged while cooling at 15,000×g for 10 minutes at 4° C., followed by removal of the supernatants. An equal volume of brain-heart infusion (BHI) broth was added thereto, and the suspensions were incubated at 37° C. for 2 hours. In the first EMA treatment, EMA was not added again to the live cell and injured cell suspensions having an EMA concentration of 0, while EMA was added again at a final concentration of 10 μg/ml to the live cell and injured cell suspensions having an EMA concentration of 10, 25, or 100 μg/ml. The suspensions were allowed to stand under shading at 4° C. for 10 minutes, placed on ice, and irradiated for 5 minutes with a 500-W visible light at a distance of 20 cm from the suspensions. Ethidium monoazide (EMA) was added to the live cell and injured cell suspensions of sakazakii prepared in the section “1.” at a final concentration of 0, 10, 25 or 100 μg/ml, and the suspensions were allowed to stand under shading at 4° C. for 10 minutes, placed on ice, and irradiated for 5 minutes with a 500-W visible light (FLOOD PRF: […] ELECTRIC CO., LTD., wavelength: 500 to 700 nm) at a distance of 20 cm from the suspensions. Microtubes including one of the live cell and injured cell suspensions of sakazakii treated in the sections 2-1) and 2-2) above were centrifuged at 15,000×g for 10 minutes at 4° C. The supernatants were removed, and 1 ml of physiological saline was added thereto. The resultant suspensions were stirred vigorously and centrifuged while cooling in the same way as above (washing treatment). One more washing treatment was performed in the same way, and the same amount of sterile water as the initial amount was added to the pellets, followed by vigorous stirring. PCR Master Mix (total volume: 25.25 μl) was prepared using Direct Buffer Mix (G&g SCIENCE CO., LTD., Yokohama, Kanagawa) capable of sequentially and automatically performing elution of chromosomal DNA from a bacterium and PCR reactions. […]

[5] = system: Salmonella enteritidis IIP 604; assay: invA real-time PCR (378 bp) of EMA-treated Salmonella, Ct value
[6] = multi-step: EMA 10 μg/ml + Incubation (37° C., 2 hr) + EMA 10 μg/ml, Injured cell
[7] = multi-step: EMA 10 μg/ml + Incubation (37° C., 2 hr) + EMA 10 μg/ml, Live cell
[8] = single-step EMA 10 μg/ml, Injured cell
[9] = single-step EMA 10 μg/ml, Live cell
[10] = single-step EMA 25 μg/ml, Injured cell
[11] = single-step EMA 25 μg/ml, Live cell
[12] = single-step EMA 100 μg/ml, Injured cell
[13] = single-step EMA 100 μg/ml, Live cell
[14] = two-step EMA 10/10 μg/ml, Injured cell
[15] = two-step EMA 10/10 μg/ml, Live cell
[16] = two-step EMA 25/10 μg/ml, Injured cell
[17] = two-step EMA 25/10 μg/ml, Live cell
[18] = two-step EMA 100/10 μg/ml, Injured cell
[19] = two-step EMA 100/10 μg/ml, Live cell

Compound: CC[n+]1c(-c2ccccc2)c2cc(N=[N+]=[N-])ccc2c2ccc(N)cc21 [EMA, ethidium monoazide]
- bands of invA gene amplified products (electrophoresis, FIG. 4) ([1]; injured cells): no band was detected
- bands of invA gene amplified products (electrophoresis, FIG. 4) ([1]; live cells): bands were clearly detected
- Band Intensity [1, 6]: 0.000
- Band Intensity [1, 7]: 0.742
- Band Intensity [1, 8]: 1.218
- Band Intensity [1, 9]: 2.856
- Ct value (mean ± SD, N = 2) [2, 8]: 36.3, ND^c,d
- number of times of positive reaction in two PCR assays (i/2) [2, 8]: (1/2)
- Ct value (mean ± SD, N = 2) [2, 9]: 18.8 ± 0.3
- number of times of positive reaction in two PCR assays (i/2) [2, 9]: (2/2)
- Ct value (mean ± SD, N = 2) [2, 10]: ND, ND
- number of times of positive reaction in two PCR assays (i/2) [2, 10]: (0/2)
- Ct value (mean ± SD, N = 2) [2, 11]: 20.9±0.6
- number of times of positive reaction in two PCR assays (i/2) [2, 11]: (2/2)
- Ct value (mean ± SD, N = 2) [2, 12]: 35.0, ND
- number of times of positive reaction in two PCR assays (i/2) [2, 12]: (1/2)
- Ct value (mean ± SD, N = 2) [2, 13]: 23.9 ± 0.9
- number of times of positive reaction in two PCR assays (i/2) [2, 13]: (2/2)
- Ct value (mean ± SD, N = 2) [2, 14]: ND, ND
- number of times of positive reaction in two PCR assays (i/2) [2, 14]: (0/2)
- Ct value (mean ± SD, N = 2) [2, 15]: 15.9±0.4
- number of times of positive reaction in two PCR assays (i/2) [2, 15]: (2/2)
- Ct value (mean ± SD, N = 2) [2, 16]: ND, ND
- number of times of positive reaction in two PCR assays (i/2) [2, 16]: (0/2)
- Ct value (mean ± SD, N = 2) [2, 17]: 20.1 ± 1.6
- number of times of positive reaction in two PCR assays (i/2) [2, 17]: (2/2)
- Ct value (mean ± SD, N = 2) [2, 18]: 36.0, ND
- number of times of positive reaction in two PCR assays (i/2) [2, 18]: (1/2)
- Ct value (mean ± SD, N = 2) [2, 19]: 23.6 ± 0.4
- number of times of positive reaction in two PCR assays (i/2) [2, 19]: (2/2)
- bands of hlyA gene amplified products (electrophoresis, FIG. 1) ([3]; injured cells): few or no bands were detected
- bands of hlyA gene amplified products (electrophoresis, FIG. 1) ([3]; live cells): bands were clearly detected
- Band Intensity ([3]; multi-step: EMA 100 μg/ml + Incubation (30° C., 2 hr) + EMA 10 μg/ml, Injured cell): 0.094
- Band Intensity ([3]; multi-step: EMA 100 μg/ml + Incubation (30° C., 2 hr) + EMA 10 μg/ml, Live cell): 1.420
- Band Intensity ([3]; multi-step: EMA 100 μg/ml + Incubation (30° C., 2 hr) + EMA 25 μg/ml, Injured cell): 0.024
- Band Intensity ([3]; multi-step: EMA 100 μg/ml + Incubation (30° C., 2 hr) + EMA 25 μg/ml, Live cell): 1.135
- Band Intensity [3, 8]: 1.539
- Band Intensity [3, 9]: 1.141
- Band Intensity [3, 10]: 0.418
- Band Intensity [3, 11]: 0.479
- bands estimated as hlyA gene amplified products (electrophoresis, FIG. 1) ([3]; EMA 10 μg/ml): detected in both the live cells and injured cells
- bands estimated as hlyA gene amplified products (electrophoresis, FIG. 1) ([3]; EMA 25 μg/ml): almost disappeared in both the live cells and injured cells
- bands of MMS gene amplified products (electrophoresis, FIG. 3) ([4]; injured cells): no band was detected
- bands of MMS gene amplified products (electrophoresis, FIG. 3) ([4]; live cells): bands were clearly detected
- Band Intensity [4, 6]: 0.000
- Band Intensity [4, 7]: 0.997
- Band Intensity [4, 8]: 0.855
- Band Intensity [4, 9]: 0.845
- Ct value (mean ± SD, N = 2) [5, 8]: 31.6 ± 4.7
- number of times of positive reaction in two PCR assays (i/2) [5, 8]: (2/2)
- Ct value (mean ± SD, N = 2) [5, 9]: 16.2 ± 0.4
- number of times of positive reaction in two PCR assays (i/2) [5, 9]: (2/2)
- Ct value (mean ± SD, N = 2) [5, 10]: ND, ND^c,d
- number of times of positive reaction in two PCR assays (i/2) [5, 10]: (0/2)
- Ct value (mean ± SD, N = 2) [5, 11]: 18.23±0.3 and 18.2 ± 0.3
- number of times of positive reaction in two PCR assays (i/2) [5, 11]: (2/2)
- Ct value (mean ± SD, N = 2) [5, 12]: ND, ND
- number of times of positive reaction in two PCR assays (i/2) [5, 12]: (0/2)
- Ct value (mean ± SD, N = 2) [5, 13]: 27.7±3.8 and 27.7 ± 3.6
- number of times of positive reaction in two PCR assays (i/2) [5, 13]: (2/2)
- Ct value (mean ± SD, N = 2) [5, 14]: ND, ND
- number of times of positive reaction in two PCR assays (i/2) [5, 14]: (0/2)
- Ct value (mean ± SD, N = 2) [5, 15]: 16.0±3.5
- number of times of positive reaction in two PCR assays (i/2) [5, 15]: (2/2)
- Ct value (mean ± SD, N = 2) [5, 16]: ND, ND
- number of times of positive reaction in two PCR assays (i/2) [5, 16]: (0/2)
- Ct value (mean ± SD, N = 2) [5, 17]: 18.9 ± 2.2
- number of times of positive reaction in two PCR assays (i/2) [5, 17]: (2/2)
- Ct value (mean ± SD, N = 2) [5, 18]: ND, ND
- number of times of positive reaction in two PCR assays (i/2) [5, 18]: (0/2)
- Ct value (mean ± SD, N = 2) [5, 19]: 27.9 ± 3.0
- number of times of positive reaction in two PCR assays (i/2) [5, 19]: (2/2)

From patent US8221975B2, “Method for detection of microorganism” (Morinaga Milk Industry Co., Ltd., priority 2007, dated 2012)
